These results are taken from PubChem BioAssay AID330 (DTP/NCI, 2004).

This assay deals with P388 leukemia ip, CD2F1 mice, survival T/C. In words: NCI In Vivo Anticancer Drug Screen. Data for tumor model P388 Leukemia (intraperitoneal) in CD2F1 (CDF1) mice. The following applies: endpoint: median survival time, higher = longer survival. The gist of the method: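 Mice carrying the transplanted tumor received test compound or vehicle. Survival was recorded in each group, and the value is the treated-group measurement divided by that of the vehicle-treated control group.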

Where [1] appears, read: dose: 50.0 mg/kg/injection, schedule: Q01DX009 (ip), vehicle: saline with Tween-80.
[2] abbreviates: dose: 60.0 mg/kg/injection, schedule: Q01DX005 (ip), vehicle: saline with Tween-80.
[3] abbreviates: dose: 120.0 mg/kg/injection, schedule: Q01DX005 (ip), vehicle: saline with Tween-80.
Where [4] appears, read: dose: 240.0 mg/kg/injection, schedule: Q01DX005 (ip), vehicle: saline with Tween-80.
[5] abbreviates: dose: 100.0 mg/kg/injection, schedule: Q01DX009 (ip), vehicle: saline with Tween-80.
[6] abbreviates: dose: 200.0 mg/kg/injection, schedule: Q01DX009 (ip), vehicle: saline with Tween-80.
Setting [7] is: dose: 50.0 mg/kg/injection, schedule: Q01DX005 (ip), vehicle: Klucel (hydroxypropylcellulose) (HPC).
[8] abbreviates: dose: 100.0 mg/kg/injection, schedule: Q01DX005 (ip), vehicle: Klucel (hydroxypropylcellulose) (HPC).
Where [9] appears, read: dose: 50.0 mg/kg/injection, schedule: Q01DX009 (ip), vehicle: Klucel (hydroxypropylcellulose) (HPC).
Setting [10] is: dose: 100.0 mg/kg/injection, schedule: Q01DX009 (ip), vehicle: Klucel (hydroxypropylcellulose) (HPC).
The mark [11] stands for this setting: dose: 200.0 mg/kg/injection, schedule: Q01DX009 (ip), vehicle: Klucel (hydroxypropylcellulose) (HPC).

Molecules are shown by their SMILES. “And” between values parts separate entries of the source, which are not always exact repeats. Equal values may be shown once. Toxic doses and inconclusive results are not listed.

As for `CC1=CC(=O)c2c(O)cccc2C1=O`, the T/C is 108 % of control (dose: 2.0 mg/kg/injection, schedule: Q01DX009 (ip), vehicle: Klucel (hydroxypropylcellulose) (HPC)); 110 % of control (dose: 2.0 mg/kg/injection, schedule: Q01DX009 (ip), vehicle: saline with Tween-80); 113 % of control and 116 % of control (dose: 4.0 mg/kg/injection, schedule: Q01DX009 (ip), vehicle: Klucel (hydroxypropylcellulose) (HPC)); 114 % of control (dose: 4.0 mg/kg/injection, schedule: Q01DX009 (ip), vehicle: saline with Tween-80); 122 % of control (dose: 8.0 mg/kg/injection, schedule: Q01DX009 (ip), vehicle: Klucel (hydroxypropylcellulose) (HPC)).
Regarding `COc1ccc(OC(=O)Nc2ccc(Cl)c(C(F)(F)F)c2)c(Cl)c1`, the T/C (dose: 1.56 mg/kg/injection, schedule: Q01DX009 (ip), vehicle: saline) was 100 % of control; the T/C (dose: 3.12 mg/kg/injection, schedule: Q01DX009 (ip), vehicle: saline) was 94 % of control; the T/C (dose: 6.25 mg/kg/injection, schedule: Q01DX009 (ip), vehicle: saline) was 88 % of control and 95 % of control; the T/C (dose: 12.5 mg/kg/injection, schedule: Q01DX009 (ip), vehicle: saline) was 96 % of control; the T/C (dose: 25.0 mg/kg/injection, schedule: Q01DX009 (ip), vehicle: saline) is 93 % of control; the T/C (dose: 100.0 mg/kg/injection, schedule: Q01DX009 (ip), vehicle: saline + alcohol) is 101 % of control. For the same compound, the T/C (dose: 200.0 mg/kg/injection, schedule: Q01DX009 (ip), vehicle: saline + alcohol) is 100 % of control.
Take `CC(=O)Nc1ccc(/C=N/NC(=O)c2ccc(C)cc2)cc1`: the T/C was 103 % of control (dose: 25.0 mg/kg/injection, schedule: Q01DX009 (ip), vehicle: saline with Tween-80) and 86 % of control under setting [1].
As for `O/N=C(/Cc1nc2cc(Cl)c(Cl)cc2nc1C/C(=N/O)c1cccc2ccccc12)c1cccc2ccccc12`, the T/C is 91 % of control under setting [2], 99 % of control under setting [3] and 94 % of control under setting [4].
The corresponding values for `CC1SC2(C(=O)Nc3ccc(Br)cc32)N(c2ccc(Cl)cc2)C1=O` (stereo unspecified) are 97 % of control, 109 % of control and 100 % of control.
As to `N/C(=C\S(=O)(=O)c1ccccc1)C12CC3CC(CC(C3)C1)C2`, the T/C under setting [1] is 94 % of control, the T/C under setting [5] was 94 % of control and the T/C under setting [6] was 87 % of control.
As for `O=c1[nH]c2c(c3c1CCCC3)CC1(CC2)OCCO1`, the T/C was 105 % of control (dose: 100.0 mg/kg/injection, schedule: Q04DX002 (ip), vehicle: Klucel (hydroxypropylcellulose) (HPC)); 100 % of control (dose: 200.0 mg/kg/injection, schedule: Q04DX002 (ip), vehicle: Klucel (hydroxypropylcellulose) (HPC)); 108 % of control (dose: 400.0 mg/kg/injection, schedule: Q04DX002 (ip), vehicle: Klucel (hydroxypropylcellulose) (HPC)).
Consider `COC(=O)C1=C/CCCN/C=C\1C(=O)OC`, for which the T/C is, setting by setting: (dose: 100.0 mg/kg/injection, schedule: Q04DX003 (ip), vehicle: Klucel (hydroxypropylcellulose) (HPC)) 97 % of control; (dose: 200.0 mg/kg/injection, schedule: Q04DX003 (ip), vehicle: Klucel (hydroxypropylcellulose) (HPC)) 97 % of control; (dose: 400.0 mg/kg/injection, schedule: Q04DX003 (ip), vehicle: Klucel (hydroxypropylcellulose) (HPC)) 98 % of control.
In the case of `NC(N)=NS(=O)(=O)c1ccc(N=NC2=C(O)C(c3ccccc3)N(c3ccccc3)C2=O)cc1` (stereo unspecified), the T/C by setting is: (dose: 100.0 mg/kg/injection, schedule: Q01DX001 (ip), vehicle: saline with Tween-80) 102 % of control; (dose: 200.0 mg/kg/injection, schedule: Q01DX001 (ip), vehicle: saline with Tween-80) 102 % of control; (dose: 400.0 mg/kg/injection, schedule: Q01DX001 (ip), vehicle: saline with Tween-80) 90 % of control.
Take `CN(C)c1ccc2c(SCC(=O)OCC(=O)C3(O)CCC4C5CCC6=CC(=O)C=CC6(C)C5C(O)CC43C)c3ccc(N(C)C)cc3nc2c1` (stereo unspecified): the T/C (dose: 12.5 mg/kg/injection, schedule: Q01DX005 (ip), vehicle: Klucel (hydroxypropylcellulose) (HPC)) is 98 % of control and 97 % of control; the T/C (dose: 25.0 mg/kg/injection, schedule: Q01DX005 (ip), vehicle: Klucel (hydroxypropylcellulose) (HPC)) was 111 % of control and 93 % of control; the T/C under setting [7] was 123 % of control and 96 % of control; the T/C under setting [8] is 118 % of control and 122 % of control.
`O=C[C@@H](CO)O[C@H](C=O)n1cnc2c(=O)[nH]cnc21`: the T/C runs as follows: (dose: 80.0 mg/kg/injection, schedule: Q01DX009 (ip), vehicle: saline) 166 % of control and 169 % of control; (dose: 150.0 mg/kg/injection, schedule: Q01DX005 (ip), vehicle: saline) 171 % of control; (dose: 160.0 mg/kg/injection, schedule: Q01DX009 (ip), vehicle: saline) 187 % of control and 189 % of control and 209 % of control; (dose: 250.0 mg/kg/injection, schedule: Q01DX005 (ip), vehicle: saline) 56 % of control; (dose: 320.0 mg/kg/injection, schedule: Q01DX009 (ip), vehicle: saline) 100 % of control and 104 % of control.
`CCC1CCCCN1Cc1ccccc1` (stereo unspecified): the T/C runs as follows: (dose: 60.0 mg/kg/injection, schedule: Q01DX005 (ip), vehicle: Klucel (hydroxypropylcellulose) (HPC)) 108 % of control; (dose: 120.0 mg/kg/injection, schedule: Q01DX005 (ip), vehicle: Klucel (hydroxypropylcellulose) (HPC)) 110 % of control.
Take `Nn1nnnc1-c1ccccc1`: the T/C by setting is: under setting [9], 96 % of control; under setting [10], 100 % of control; under setting [11], 95 % of control.
Turning to `NCC(=O)NC(CCCN=C(N)N)C(=O)O` (stereo unspecified), the T/C by setting is: (dose: 50.0 mg/kg/injection, schedule: Q01DX005 (ip), vehicle: saline) 96 % of control; (dose: 100.0 mg/kg/injection, schedule: Q01DX005 (ip), vehicle: saline) 99 % of control; (dose: 200.0 mg/kg/injection, schedule: Q01DX005 (ip), vehicle: saline) 99 % of control.
Regarding `CC(=O)O[C@H]1CC[C@@]2(C)[C@@H](CC[C@@H]3[C@@H]2CC[C@]2(C)C(=NCCO)CC[C@@H]32)C1`, the T/C under setting [7] was 108 % of control; the T/C under setting [8] is 105 % of control; the T/C (dose: 200.0 mg/kg/injection, schedule: Q01DX005 (ip), vehicle: Klucel (hydroxypropylcellulose) (HPC)) is 99 % of control.
For the compound `CCCCCCCCCN1CCS(=O)(=O)CC1`, the T/C runs as follows: under setting [9], 94 % of control; under setting [10], 98 % of control; under setting [11], 103 % of control.
Consider `CCCCN(CCCC)CC(O)c1c2cccc(Cl)c2cc2c(Cl)cccc12` (stereo unspecified), for which the T/C under setting [1] is 98 % of control and 99 % of control; the T/C under setting [5] is 99 % of control and 92 % of control; the T/C under setting [6] is 90 % of control; the T/C (dose: 400.0 mg/kg/injection, schedule: Q01DX009 (ip), vehicle: saline with Tween-80) was 90 % of control.
Take `COc1cc2ccc(=O)oc2cc1O`: the T/C runs as follows: (dose: 3.75 mg/kg/injection, schedule: Q01DX009 (ip), vehicle: saline with Tween-80) 100 % of control; (dose: 7.5 mg/kg/injection, schedule: Q01DX009 (ip), vehicle: saline with Tween-80) 103 % of control and 98 % of control; (dose: 15.0 mg/kg/injection, schedule: Q01DX009 (ip), vehicle: saline with Tween-80) 100 % of control and 107 % of control; (dose: 30.0 mg/kg/injection, schedule: Q01DX009 (ip), vehicle: saline with Tween-80) 104 % of control and 91 % of control; (dose: 50.0 mg/kg/injection, schedule: Q01DX009 (ip), vehicle: saline) 95 % of control; (dose: 50.0 mg/kg/injection, schedule: Q01DX009 (ip), vehicle: suspension in saline) 99 % of control and 106 % of control. Moreover, the T/C (dose: 100.0 mg/kg/injection, schedule: Q01DX009 (ip), vehicle: saline) was 100 % of control; the T/C (dose: 100.0 mg/kg/injection, schedule: Q01DX009 (ip), vehicle: suspension in saline) is 104 % of control and 109 % of control; the T/C (dose: 200.0 mg/kg/injection, schedule: Q01DX009 (ip), vehicle: saline) is 100 % of control; the T/C (dose: 200.0 mg/kg/injection, schedule: Q01DX009 (ip), vehicle: suspension in saline) is 107 % of control and 108 % of control; the T/C (dose: 400.0 mg/kg/injection, schedule: Q01DX009 (ip), vehicle: saline) is 100 % of control; the T/C (dose: 400.0 mg/kg/injection, schedule: Q01DX009 (ip), vehicle: suspension in saline) was 111 % of control.
